These results are taken from patent US20260125382A1, “COMPOUNDS FOR INHIBITING OR DEGRADING CDK2 AND/OR CDK9 AND MEDICINAL USE THEREOF” (KOREA RESEARCH INSTITUTE OF CHEMICAL TECHNOLOGY, priority 2022, published 2026).

The target of one test is T1, CDK2 (Homo sapiens, UniProt P24941).
T1 construct: endogenous in cells; host or cells: MDA-MB-231
As to the kind of experiment: CDK protein degradation activity (Western blotting), CDK2. Format: cell-based. The conditions noted are these: MDA-MB-231 cells, 16 hours, Western blot. In outline:
(§1)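 MDA-MB-231 cells treated 16 h with compound at 100 nM, 1 μM or 10 μM, with DMSO as control. Lysates run on SDS-PAGE and immunoblotted for CDK2, CDK9 and tubulin; band levels quantified by densitometry.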
A general note: A western blot detects proteins with antibodies after separation by electrophoresis.

The target of another test is T2, CDK9 (Homo sapiens, UniProt P50750).
T2 construct: endogenous in cells; host or cells: MDA-MB-231
T2 sequence (P50750 whole entry): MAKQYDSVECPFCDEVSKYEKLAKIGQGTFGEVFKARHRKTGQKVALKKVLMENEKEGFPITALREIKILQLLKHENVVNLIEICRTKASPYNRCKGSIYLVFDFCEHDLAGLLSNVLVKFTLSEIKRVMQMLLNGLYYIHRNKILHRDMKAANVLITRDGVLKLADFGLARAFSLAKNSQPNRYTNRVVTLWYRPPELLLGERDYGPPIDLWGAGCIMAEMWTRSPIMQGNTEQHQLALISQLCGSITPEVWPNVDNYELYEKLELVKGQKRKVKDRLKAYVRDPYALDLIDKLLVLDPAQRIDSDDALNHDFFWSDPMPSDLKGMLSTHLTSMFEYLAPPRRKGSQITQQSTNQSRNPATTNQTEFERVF
Nature of the test: CDK protein degradation activity (Western blotting), CDK9. Format: cell-based. The conditions noted are these: MDA-MB-231 cells, 16 hours, Western blot. An outline of the steps:
as §1

`O=C1CC[C@H](N2C(=O)c3cccc(NCC(=O)N4CCC(CCCN5CCN(c6ccc(Nc7ncnc8c7ncn8[C@H]7C[C@@H](NC(=O)Cc8ccccc8)C7)cc6)CC5)CC4)c3C2=O)C(=O)N1` [Compound 253, N-((1s,3s)-3-(6-((4-(4-(3-(1-((2-(2,6-dioxopiperidin-3-yl)-1,3-dioxoisoindolin-4-yl)glycyl)piperidin-4-yl)propyl)piperazin-1-yl)phenyl)amino)-9H-purin-9-yl)cyclobutyl)-2-phenylacetamide]: at CDK2, the “Enzyme degradation CDK2 (% remaining) @ 0.1 μM” value is listed as 20/—/20% and the “Enzyme degradation CDK2 (% remaining) @ 10 μM” value is given as 20/—/20%. Besides, at CDK9, the “Enzyme degradation CDK9 (% remaining) @ 0.1 μM” value is on record as 0/0/0%, the “Enzyme degradation CDK9 (% remaining) @ 1 μM” value is listed as 0/0/0% and the “Enzyme degradation CDK9 (% remaining) @ 10 μM” value is reported as 0/0/0%.
As to `N#Cc1cccc(C(=O)NC2CC(n3cnc4c(Nc5ccc(N6CCN(CC7CCN(c8ccc9c(c8)C(=O)N([C@H]8CCC(=O)NC8=O)C9=O)CC7)CC6)cc5)ncnc43)C2)n1` (some centres unmarked) [Compound 392, 6-cyano-N-((1s,3s)-3-(6-((4-(4-((1-(2-(2,6-dioxopiperidin-3-yl)-1,3-dioxoisoindolin-5-yl)piperidin-4-yl)methyl)piperazin-1-yl)phenyl)amino)-9H-purin-9-yl)cyclobutyl)picolinamide], on CDK2, the “Enzyme degradation CDK2 (% remaining) @ 0.1 μM” value was found to be 0%, the “Enzyme degradation CDK2 (% remaining) @ 1 μM” value was 0% and the “Enzyme degradation CDK2 (% remaining) @ 10 μM” value turned out to be 10%. Moreover, at CDK9, the “Enzyme degradation CDK9 (% remaining) @ 0.1 μM” value is on record as 0/0/0%, the “Enzyme degradation CDK9 (% remaining) @ 1 μM” value is 0/0/0% and the “Enzyme degradation CDK9 (% remaining) @ 10 μM” value is 0/0/0%.
Consider `O=C1CC[C@H](N2C(=O)c3ccc(N4CCC(CN5CCN(c6ccc(Nc7ncnc8c7ncn8[C@H]7C[C@@H](NC(=O)c8cccc(F)n8)C7)cc6)CC5)CC4)cc3C2=O)C(=O)N1` [Compound 390, N-((1s,3s)-3-(6-((4-(4-((1-(2-(2,6-dioxopiperidin-3-yl)-1,3-dioxoisoindolin-5-yl)piperidin-4-yl)methyl)piperazin-1-yl)phenyl)amino)-9H-purin-9-yl)cyclobutyl)-6-fluoropicolinamide], for which, on CDK2, the “Enzyme degradation CDK2 (% remaining) @ 0.1 μM” value is reported as 20/20/20%, the “Enzyme degradation CDK2 (% remaining) @ 1 μM” value was 20/20/20% and the “Enzyme degradation CDK2 (% remaining) @ 10 μM” value was 20/20/20%. Moreover, at CDK9, the “Enzyme degradation CDK9 (% remaining) @ 0.1 μM” value amounted to 10%, the “Enzyme degradation CDK9 (% remaining) @ 1 μM” value was determined as 0% and the “Enzyme degradation CDK9 (% remaining) @ 10 μM” value is 0%.
On to `O=C1CCC(c2cccc(OCC(=O)N3CCC4(CC(N5CCN(c6ccc(Nc7ncnc8c7ncn8[C@H]7C[C@@H](NC(=O)Cc8ccccc8)C7)cc6)CC5)C4)C3)c2)C(=O)N1` (some centres unmarked) [Compound 269, N-((1s,3s)-3-(6-((4-(4-(6-(2-(3-(2,6-dioxopiperidin-3-yl)phenoxy)acetyl)-6-azaspiro[3.4]octan-2-yl)piperazin-1-yl)phenyl)amino)-9H-purin-9-yl)cyclobutyl)-2-phenylacetamide], for which, at CDK2, the “Enzyme degradation CDK2 (% remaining) @ 0.1 μM” value is recorded as 10/10/10%, the “Enzyme degradation CDK2 (% remaining) @ 1 μM” value was 10/10/10% and the “Enzyme degradation CDK2 (% remaining) @ 10 μM” value was 10/10/10%. Also, at CDK9, the “Enzyme degradation CDK9 (% remaining) @ 0.1 μM” value turned out to be 30%, the “Enzyme degradation CDK9 (% remaining) @ 1 μM” value stood at 10% and the “Enzyme degradation CDK9 (% remaining) @ 10 μM” value turned out to be 10%.
`O=C1CC[C@H](N2C(=O)c3ccc(N4CC(N5CCC6(CC5)CC(N5CCN(c7ccc(Nc8ncnc9c8ncn9C8CC(NC(=O)Cc9ccccc9)C8)cc7)CC5)C6)C4)cc3C2=O)C(=O)N1` (some centres unmarked) [Compound 271, N-((1s,3s)-3-(6-((4-(4-(7-(1-(2-(2,6-dioxopiperidin-3-yl)-1,3-dioxoisoindolin-5-yl)azetidin-3-yl)-7-azaspiro[3.5]nonan-2-yl)piperazin-1-yl)phenyl)amino)-9H-purin-9-yl)cyclobutyl)-2-phenylacetamide]: at CDK2, the “Enzyme degradation CDK2 (% remaining) @ 0.1 μM” value is reported as 30%, the “Enzyme degradation CDK2 (% remaining) @ 1 μM” value is reported as 40% and the “Enzyme degradation CDK2 (% remaining) @ 10 μM” value came to 40%. For the same compound, at CDK9, the “Enzyme degradation CDK9 (% remaining) @ 0.1 μM” value was 20%, the “Enzyme degradation CDK9 (% remaining) @ 1 μM” value is recorded as 10% and the “Enzyme degradation CDK9 (% remaining) @ 10 μM” value was 10%.
On to `O=C1CC[C@H](N2C(=O)c3cc(F)c(N4CCC(C(=O)N5CCC6(CC5)CC(N5CCN(c7ccc(Nc8ncnc9c8ncn9C8CC(NC(=O)Cc9ccccc9)C8)cc7)CC5)C6)CC4)cc3C2=O)C(=O)N1` (some centres unmarked) [Compound 460, N-((1s,3s)-3-(6-((4-(4-(7-(1-(2-(2,6-dioxopiperidin-3-yl)-6-fluoro-1,3-dioxoisoindolin-5-yl)piperidin-4-carbonyl)-7-azaspiro[3.5]nonan-2-yl)piperazin-1-yl)phenyl)amino)-9H-purin-9-yl)cyclobutyl)-2-phenylacetamide], for which, at CDK2, the “Enzyme degradation CDK2 (% remaining) @ 0.1 μM” value is given as 40/40/40%, the “Enzyme degradation CDK2 (% remaining) @ 1 μM” value is on record as 40/40/40% and the “Enzyme degradation CDK2 (% remaining) @ 10 μM” value is on record as 40/40/40%. Further, at CDK9, the “Enzyme degradation CDK9 (% remaining) @ 0.1 μM” value is given as 0/0/0%, the “Enzyme degradation CDK9 (% remaining) @ 1 μM” value is 0/0/0% and the “Enzyme degradation CDK9 (% remaining) @ 10 μM” value is 0/0/0%.
`O=C(COc1cccc2c1C(=O)N(C1CCC(=O)NC1=O)C2=O)NCC1CCC(CN2CCN(c3ccc(Nc4ncnc5c4ncn5C4CC(NC(=O)Cc5ccccc5)C4)cc3)CC2)CC1` (centres unmarked) [Compound 219, 2-((2-(2,6-dioxopiperidin-3-yl)-1,3-dioxoisoindolin-4-yl)oxy)-N-(((1r,4r)-4-((4-(4-((9-((1s,3s)-3-(2-phenylacetamido)cyclobutyl)-9H-purin-6-yl)amino)phenyl)piperazin-1-yl)methyl)cyclohexyl)methyl)acetamide]: on CDK2, the “Enzyme degradation CDK2 (% remaining) @ 0.1 μM” value was found to be 80%, the “Enzyme degradation CDK2 (% remaining) @ 1 μM” value is 50% and the “Enzyme degradation CDK2 (% remaining) @ 10 μM” value is on record as 50%. For the same compound, at CDK9, the “Enzyme degradation CDK9 (% remaining) @ 0.1 μM” value came out at 100%, the “Enzyme degradation CDK9 (% remaining) @ 1 μM” value is on record as 10% and the “Enzyme degradation CDK9 (% remaining) @ 10 μM” value was 0%.
Consider `O=C1CCC(N2C(=O)c3cc(F)c(N4CCC(CN5CCC(CCNc6ncnc7c6ncn7[C@H]6C[C@@H](NC(=O)Cc7ccccc7)C6)CC5)CC4)cc3C2=O)C(=O)N1` (some centres unmarked) [Compound 409, N-((1s,3s)-3-(6-((2-(1-((1-(2-(2,6-dioxopiperidin-3-yl)-6-fluoro-1,3-dioxoisoindolin-5-yl)piperidin-4-yl)methyl)piperidin-4-yl)ethyl)amino)-9H-purin-9-yl)cyclobutyl)-2-phenylacetamide], for which, at CDK2, the “Enzyme degradation CDK2 (% remaining) @ 0.1 μM” value was 70%, the “Enzyme degradation CDK2 (% remaining) @ 1 μM” value was determined as 40% and the “Enzyme degradation CDK2 (% remaining) @ 10 μM” value was 40%. Moreover, on CDK9, the “Enzyme degradation CDK9 (% remaining) @ 0.1 μM” value is listed as 70%, the “Enzyme degradation CDK9 (% remaining) @ 1 μM” value is reported as 50% and the “Enzyme degradation CDK9 (% remaining) @ 10 μM” value is recorded as 10%.
Take `Cc1cccc(C(=O)N[C@H]2C[C@@H](n3cnc4c(NC5CCN(CCC6CCN(c7cccc8c7C(=O)N([C@H]7CCC(=O)CC7=O)C8=O)CC6)CC5)ncnc43)C2)n1` [Compound 36, N-((1s,3s)-3-(6-((1-(2-(1-(2-(2,4-dioxocyclohexyl)-1,3-dioxoisoindolin-4-yl)piperidin-4-yl)ethyl)piperidin-4-yl)amino)-9H-purin-9-yl)cyclobutyl)-6-methylpicolinamide]: on CDK2, the “Enzyme degradation CDK2 (% remaining) @ 0.1 μM” value was 100/100/100%, the “Enzyme degradation CDK2 (% remaining) @ 1 μM” value was 100/100/100% and the “Enzyme degradation CDK2 (% remaining) @ 10 μM” value is 100/100/100%. At CDK9, the “Enzyme degradation CDK9 (% remaining) @ 0.1 μM” value was determined as 30%, the “Enzyme degradation CDK9 (% remaining) @ 1 μM” value came to 10% and the “Enzyme degradation CDK9 (% remaining) @ 10 μM” value is listed as 20%.
Turning to `O=C1CC[C@H](N2C(=O)c3ccc(N4CCC(C(=O)N5CCC(CN6CCN(c7ccc(Nc8ncnc9c8ncn9C8CC(NC(=O)c9cccc(F)n9)C8)cc7)CC6)CC5)CC4)cc3C2=O)C(=O)N1` (some centres unmarked) [Compound 467, N-((1s,3s)-3-(6-((4-(4-((1-(1-(2-(2,6-dioxopiperidin-3-yl)-1,3-dioxoisoindolin-5-yl)piperidin-4-carbonyl)piperidin-4-yl)methyl)piperazin-1-yl)phenyl)amino)-9H-purin-9-yl)cyclobutyl)-6-fluoropicolinamide], at CDK2, the “Enzyme degradation CDK2 (% remaining) @ 0.1 μM” value is 40%, the “Enzyme degradation CDK2 (% remaining) @ 1 μM” value amounted to 30% and the “Enzyme degradation CDK2 (% remaining) @ 10 μM” value amounted to 30%. Further, at CDK9, the “Enzyme degradation CDK9 (% remaining) @ 0.1 μM” value is listed as 0/0/0%, the “Enzyme degradation CDK9 (% remaining) @ 1 μM” value is reported as 0/0/0% and the “Enzyme degradation CDK9 (% remaining) @ 10 μM” value is given as 0/0/0%.
With `Cc1cccc(C(=O)N[C@H]2C[C@@H](n3cnc4c(NCCCN5CCN(CC6CCN(C(=O)COc7cccc([C@@H]8CCC(=O)NC8=O)c7)CC6)CC5)ncnc43)C2)n1` [Compound 230, N-((1s,3s)-3-(6-((3-(4-((1-(2-(3-(2,6-dioxopiperidin-3-yl)phenoxy)acetyl)piperidin-4-yl)methyl)piperazin-1-yl)propyl)amino)-9H-purin-9-yl)cyclobutyl)-6-methylpicolinamide], at CDK2, the “Enzyme degradation CDK2 (% remaining) @ 0.1 μM” value amounted to 50%, the “Enzyme degradation CDK2 (% remaining) @ 1 μM” value is 50% and the “Enzyme degradation CDK2 (% remaining) @ 10 μM” value came to 80%. At CDK9, the “Enzyme degradation CDK9 (% remaining) @ 0.1 μM” value amounted to 30%, the “Enzyme degradation CDK9 (% remaining) @ 1 μM” value is recorded as 10% and the “Enzyme degradation CDK9 (% remaining) @ 10 μM” value was 0%.
